{"source": "patent US10300020B2", "about": "(West-Ward Pharmaceuticals International Limited, priority 2005, dated 2019)", "details": "calcium acetate used in Example 1", "text": "In another preferred embodiment, the bulk density is between about 0.30 g/cc to about less than 0.55 g/cc. More preferably the bulk density is between about 0.30 g/cc to about 0.45 g/cc.", "data": [{"smiles": "CC(=O)[O-].CC(=O)[O-].[Ca+2]", "note": "[calcium acetate]", "values": [{"measurement": "bulk density", "result": 0.47, "unit": "g/cc"}]}]}
